Tested on: LpxC enzyme
Experiment: LpxC enzyme assay (RapidFire high-throughput mass spectrometry)
Type: biochemical
Procedure: The standard LpxC assay consists of 0.2 nM LpxC enzyme, 1.0 μM UDP-3-O—(R-3-hydroxymyristoyl)-N-acetylglucosamine, and test compound, in assay buffer and 2% DMSO. Assay buffer is comprised of 25 mM HEPES, pH 7.3, 150 mM NaCl, 2.0 mM DTT, and 0.01% BSA. The enzyme reaction is carried out in a 96-well assay plate, in a final volume of 102 μL. Solutions of test compounds are prepared in 100% DMSO. Reaction additions, in order, are (1) 2.0 μL compound solution, (2) 80 μL of assay buffer, (3) 10 μL of 10 μM UDP-3-O—(R-3-hydroxymyristoyl)-N-acetylglucosamine (in assay buffer) and, (4) 10 μL of LpxC enzyme (20 nM in assay buffer) to initiate the reaction. In positive control reactions, addition (1) has 2.0 μL of 100% DMSO (without compound); these reactions are used as the total signal (TSB) value. Reactions are incubated at room temperature for 60 minutes when 10 μL of 1 N HCl is added to stop the reaction. The plate is shaken by hand for 10 seconds to ensure complete quenching. Assay plates are sealed with foil tape, and stored at −80° C. for 24-48 hr prior to analysis.
The concentrations of substrate and product in the reaction mixtures are determined with BioTrove's proprietary RapidFire™ high-throughput mass spectrometry (HTMS). Assay mixtures are partially purified with reverse phase chromatography, where they are washed with water containing 5 mM ammonium formate and eluted onto the mass spectrometer in 80% acetonitrile, 20% water, and 5 mM ammonium formate. The mass spectrometry peak areas of the substrate and product are measured to determine the concentration of these analytes. The assay signal is the percentage of substrate that is converted to product. Percent inhibition, % I, in test samples is determined from the following equation: […]

[1] = concentration 0.10 (unit not given)
[2] = concentration 0.20 (unit not given)
[3] = concentration 0.39 (unit not given)
[4] = concentration 0.78 (unit not given)
[5] = concentration 1.56 (unit not given)
[6] = concentration 3.13 (unit not given)
[7] = concentration 6.25 (unit not given)
[8] = concentration 12.50 (unit not given)
[9] = concentration 25 (unit not given)
[10] = concentration 50 (unit not given)

| SMILES | LpxC enzyme assay rating (% inhibition at indicated concentrations) [1] | LpxC enzyme assay rating (% inhibition at indicated concentrations) [2] | LpxC enzyme assay rating (% inhibition at indicated concentrations) [3] | LpxC enzyme assay rating (% inhibition at indicated concentrations) [4] | LpxC enzyme assay rating (% inhibition at indicated concentrations) [5] | LpxC enzyme assay rating (% inhibition at indicated concentrations) [6] | LpxC enzyme assay rating (% inhibition at indicated concentrations) [7] | LpxC enzyme assay rating (% inhibition at indicated concentrations) [8] | LpxC enzyme assay rating (% inhibition at indicated concentrations) [9] | LpxC enzyme assay rating (% inhibition at indicated concentrations) [10] |
| --- | --- | --- | --- | --- | --- | --- | --- | --- | --- | --- |
| O=C([C@H](O)[C@@H](O)C(=O)N1CCC(c2ccc(C(F)(F)F)cc2)CC1)N1CCCC1 [Compound 69] | C (less than 10% inhibition) | C (less than 10% inhibition) | C (less than 10% inhibition) | C (less than 10% inhibition) | C (less than 10% inhibition) | C (less than 10% inhibition) | C (less than 10% inhibition) | C (less than 10% inhibition) | C (less than 10% inhibition) | C (less than 10% inhibition) |
| CN(C)C(=O)[C@H](O)[C@@H](O)C(=O)N1CCN(c2ccc(-c3ccccc3)cc2)CC1 [Compound 47] | B (10-30% inhibition) | B (10-30% inhibition) | C (less than 10% inhibition) | B (10-30% inhibition) | C (less than 10% inhibition) | B (10-30% inhibition) | B (10-30% inhibition) | B (10-30% inhibition) | C (less than 10% inhibition) | B (10-30% inhibition) |
| CN(C)CCOc1ccc(NC(=O)[C@H](O)[C@@H](O)C(=O)N(C)C)cc1 [Compound 56] | C (less than 10% inhibition) | B (10-30% inhibition) | C (less than 10% inhibition) | C (less than 10% inhibition) | C (less than 10% inhibition) | C (less than 10% inhibition) | B (10-30% inhibition) | C (less than 10% inhibition) | C (less than 10% inhibition) | C (less than 10% inhibition) |
| CCCCc1ccc(NC(=O)[C@H](O)[C@@H](O)C(=O)N(C)C)cc1 [Compound 48] | B (10-30% inhibition) | C (less than 10% inhibition) | C (less than 10% inhibition) | C (less than 10% inhibition) | C (less than 10% inhibition) | B (10-30% inhibition) | C (less than 10% inhibition) | B (10-30% inhibition) | C (less than 10% inhibition) | B (10-30% inhibition) |
| CN(C)C(=O)[C@H](O)[C@@H](O)C(=O)Nc1ccc(-c2ccc(C(F)(F)F)cc2)cc1 [Compound 46] | C (less than 10% inhibition) | C (less than 10% inhibition) | C (less than 10% inhibition) | C (less than 10% inhibition) | C (less than 10% inhibition) | C (less than 10% inhibition) | C (less than 10% inhibition) | B (10-30% inhibition) | B (10-30% inhibition) | A (greater than 30% inhibition) |
| CCCc1ccc(NC(=O)[C@H](O)[C@@H](O)C(=O)NC)cc1 [Compound 33] | C (less than 10% inhibition) | C (less than 10% inhibition) | C (less than 10% inhibition) | C (less than 10% inhibition) | B (10-30% inhibition) | B (10-30% inhibition) | B (10-30% inhibition) | C (less than 10% inhibition) | C (less than 10% inhibition) | C (less than 10% inhibition) |
| CN(C)C(=O)[C@H](O)[C@@H](O)C(=O)Nc1ccc(-c2cc[nH]n2)cc1 [Compound 59] | B (10-30% inhibition) | C (less than 10% inhibition) | B (10-30% inhibition) | C (less than 10% inhibition) | C (less than 10% inhibition) | C (less than 10% inhibition) | C (less than 10% inhibition) | C (less than 10% inhibition) | B (10-30% inhibition) | C (less than 10% inhibition) |
| CN(C)C(=O)[C@H](O)[C@@H](O)C(=O)Nc1ccc(-n2cccn2)cc1 [Compound 58] | C (less than 10% inhibition) | B (10-30% inhibition) | C (less than 10% inhibition) | B (10-30% inhibition) | C (less than 10% inhibition) | B (10-30% inhibition) | B (10-30% inhibition) | B (10-30% inhibition) | C (less than 10% inhibition) | B (10-30% inhibition) |
| C[C@H](O)[C@@H](NC(=O)[C@H](O)[C@@H](O)C(=O)N(C)C)C(=O)Nc1ccc(C#Cc2ccccc2)cc1 [Compound 77] | C (less than 10% inhibition) | C (less than 10% inhibition) | C (less than 10% inhibition) | C (less than 10% inhibition) | C (less than 10% inhibition) | C (less than 10% inhibition) | C (less than 10% inhibition) | B (10-30% inhibition) | A (greater than 30% inhibition) |  |

Reference: patent publication US7553864B2, “Compounds for the treatment of inflammatory disorders and microbial diseases” (Schering Corporation, priority 2005, dated 2009)
